According to patent US10390536B2, “Methods, compounds and compositions for repelling insects and/or arachnids” (National Center for Scientific Research “Demokritos”, priority 2013, dated 2019):
Like-named read-outs stand apart in the source and are kept apart here.

Legend:
Format in all cases: in vivo
Culex spp. = test: experimental hut field trial of spatial repellence, Culex; conditions: single compound, 1 ml in open vial in MM-X trap
Experimental: (§1) To test the effects of repellent compounds or compositions disclosed herein on mosquitoes in a controlled environment resembling actual living quarters and conditions, field trials with standardized experimental huts were conducted at Kainji Dam in North Central Nigeria.
(§2) Six such huts were built in a straight line, and the distance between huts was 11 meters. These huts follow a traditional square design, the walls are built with concrete blocks that are subsequently plastered with cement, each wall has a window. The ceiling is plywood and the roof is thatched with eaves that are open, thereby allowing free flow of air into and out of the hut, and thus entry and exit of mosquitoes. There is a door for entry and exit. Two opposing sides of each hut have window exit traps and screened verandas to capture mosquitoes leaving via the windows or eaves. Each hut is raised off the ground on a concrete platform and surrounded by a moat filled with water in order to prevent ants from entering. Each hut is fitted with a mattress and an untreated bed net for sleepers. These huts are similar in design and concept to those used previously elsewhere for studying mosquito behavior and measuring the efficacy of various mosquito control products or intervention methods in Tanzania and Gambia. For design parameters refer to WHOPES 2005. The huts are adjacent to a tributary of the River Niger at a distance of 10 km from the Kainji Dam site and face rice fields known to harbor permanent mosquito breeding sites. The mosquitoes endemic to this area of Nigeria are highly endophillic, that is, they rest mainly indoors.
(§3) Human volunteers that participated as sleepers in this field trial were provided with anti-malarial chemical prophylaxis on a weekly basis, and the protocols used herein were reviewed and approved by the Research Ethics Review Committee of the Nigerian Institute of Medical Research. Six male adult volunteers, aged between 25 and 35 years old, were recruited to sleep in the huts described above. Sleepers were allocated to huts randomly for each series of trials, and this randomization process occurred nightly. The volunteers entered the huts by 21:00 each night and remained inside the huts until 06:30 the following morning. Each morning, the windows were closed and the exit traps blocked with a piece of cloth to prevent mosquitoes that entered from exiting. The traps were then put in a freezer at −20° C. to kill all the mosquitoes before being emptied for identification. By means of a sucking aspirator the verandas and rooms were visually searched for live mosquitoes and any insects found were collected in labelled cups. A 10-minute search was conducted for each hut (room and veranda traps). The exit traps were emptied into a labelled cup and all the mosquitoes placed in the freezer at −20° C. for about 30 minutes before morphological identification.
(§4) The Mosquito Magnet trap Model-X (MM-X trap made by the firm formerly known as American Biophysics (ABC), USA) is a 12V battery operated counter-flow trap that was used as the repellent dispersing device to evaluate the efficacy of repellent compounds or compositions disclosed herein. Four compounds, carvacrol, cumin alcohol, ethyl cinnamate, and butyl cinnamate, were evaluated in comparison to DEET as a nonproprietary conventional repellent in a first experiment. The chemical compounds were provided in liquid form: carvacrol (98%), butyl cinnamate (98%), ethyl cinnamate (98%), cumin alcohol (97%) and DEET (97%). […]

Anopheles gambiae s.l. = test: experimental hut field trial of spatial repellence, Anopheles; conditions: single compound, 1 ml in open vial in MM-X trap
Experimental: as §1, §2, §3, §4

[1] = test system: Anopheles gambiae (Giles) ss strain 16CSS female mosquitoes; test: warm body repellence assay (mosquito landings); conditions: for repellent activity in the warm body assay (in words): candidate compounds, initially 1.0-5.0 μg/cm^2 (about 5-31.5 nmole/cm^2)
Experimental: To test the behavior of female mosquitoes to an essential oil containing OBP binding components, a previously described repellence assay [Kröber et al. (2010). An In Vitro Assay for Testing Mosquito Repellents Employing a Warm Body and Carbon Dioxide as a Behavioral Activator. Journal of the American Mosquito Control Association 26(4) 381-386] was conducted that measures the number of mosquito landings on a warm surface onto which an essential oil containing at least one candidate compound was applied.
To conduct a repellency assay, a selected essential oil or ethanol negative control was applied to a warm body at a dose of about 3.8 μg/cm^2 and allowed to dry for 40 seconds in order to allow evaporation of the solvent before introduction into the test cage with mosquitoes. As positive control for repellence, DEET dissolved in ethanol was applied to the warm body at the same dose. The treated warm body in conjunction with a pulse of carbon dioxide was introduced into the test cage containing fifty Anopheles gambiae (Giles) ss strain 16CSS female mosquitoes that were 4-11 days old and the number of mosquito landings on the warm body occurring within a 2-minute period was counted. Each candidate compound was tested in five different cages (i.e., 250 female mosquitoes) in a randomized design, and the ethanol control and up to four candidate compounds were tested in each cage. Raw data on numbers of landings by mosquitoes were analyzed using a linear mixed model accounting for treatment, experimental day, the individual cage, the number of females per cage and the level of the carbon dioxide pulse in ppm using R (R Development Core Team, 2010) and the packages LME4 (Bates and Maechler, Ime4: Linear mixed-effects models using {S4} classes.{R} package version 0.999375-32, 2009) and NLME (Pinheiro et al, nlme: Linear and Nonlinear Mixed Effects Models, 2010; the R Development Core Team, R: A Language and Environment for Statistical Computing, 2010). Repellent values were calculated from counted landings on treatments versus the overall landings on pooled controls.
To test the behavior of female mosquitoes to a candidate compound identified in Example 5, behavioral assays were made using the identified compounds. The repellent assay was performed as described in Example 3, except that candidate compounds were dissolved in ethanol and tested initially at doses between 1.0 and 5.0 μg/cm^2 (about 5-31.5 nmole/cm^2) and, whenever necessary, at lower and/or higher doses as well. Besides the compounds identified in Example 5, compounds related to these were also tested including ethyl-cinnamate and butyl-cinnamate (Table 4).
To test the behavior of female mosquitoes to various combinations of candidate compounds identified in Example 6, repellence assays were made as in Example 3. These repellent assays were made to compare the effectiveness of the strongest repellent compounds identified in Example 6, including, without limitation, carvacrol, ethyl cinnamate, butyl cinnamate, and cumin alcohol with that of DEET.
The doses tested were 2, 4, 6 10 and 20 nmol/cm^2 for the single compounds. The binary 50:50 mixtures were tested at 2, 6, 10 and 20 nmol/cm^2, with each compound making up half the amount tested, so that, for example, the 2 nmol/cm^2 concentration in column A+B represents 1 nmol/cm^2 of A and 1 nmol/cm^2 of B in a binary mixture. DEET was also tested at 25 nmol (top response) and carvacrol was tested at the additional dose of 2.5 nmol (second from left within its column). As an indication, DEET at 20 nmol/cm^2=3.8 μg/cm^2. Mosquitoes were activated using a puff of CO2 from a gas tank upon introduction of the warm body into the test cage containing 50±5 A. gambiae females and mosquito landings were counted for 2 minutes. Each treatment (dose) was tested using five test cages, i.e. on a total of 250 female A. gambiae. […]

[2] = 2 nmol (per cm^2, total for mixtures, 50:50)
[3] = 4 nmol (per cm^2, total for mixtures, 50:50)
[4] = 6 nmol (per cm^2, total for mixtures, 50:50)
[5] = 10 nmol (per cm^2, total for mixtures, 50:50)
[6] = 20 nmol (per cm^2, total for mixtures, 50:50)
[7] = Anopheles gambiae, 2 min, read-out: Median Repellency (%)

Row | SMILES | mosquito counts on the inside walls of the huts (in words) (Culex spp.) | mosquito counts on the inside walls of the huts (in words) (Anopheles gambiae s.l.) | Median repellence % [1, 2] | Median repellence % [1, 3] | Median repellence % [1, 4] | Median repellence % [1, 5] | Median repellence % [1, 6] | Median repellence % ([1]; 25 nmol (per cm^2)) | median repellency (%) at 20 nmol/cm2 ([1]; Anopheles gambiae, 2 min, 20 nmole per cm^2, read-out: Median Repellency (%)) | spatial repellent effect, induced exophily (in words) (Culex spp.; per night) | spatial repellent effect, induced exophily (in words) (Anopheles gambiae s.l.; per night) | median repellency (%) at 20 nmol/cm2 [1, 7] | repellent activity in the warm body assay (in words) [1] | median repellency (%) at 25 nmol/cm2 [1, 7] | repellent activity (in words) ([1]; total concentration 2 nmole/cm^2)
1 | CCN(CC)C(=O)c1cccc(C)c1 [DEET, N,N-diethyl-3-methylbenzamide, reference compound] | reduced mosquito counts on the inside walls | reduced mosquito counts on the inside walls | 2% | 41% | 80% | 96% | 98% | 100% | 98.5% |  |  |  |  |  | 
2 | CC(C)c1ccc(CO)cc1 [cumin alcohol] |  |  | −4% | 38% | 46% | 53% | 93% |  |  | significantly lower than that of DEET | significantly lower than that of DEET | 92.3% | activity comparable to DEET |  | 
3 | Cc1ccc(C(C)C)cc1O [carvacrol, 5-isopropyl-2-methylphenol] | reduced mosquito counts on the inside walls | reduced mosquito counts on the inside walls | 13% | 55% | 40% | 59% |  | 93% |  |  |  |  | activity comparable to DEET | 93.3% | retained repellent activity
